The target in the experiment is T1, POLγ W748S + E1143G (Homo sapiens, UniProt P54098, E1143G/W748S).
T1 sequence (P54098 1-1239 W748S/E1143G): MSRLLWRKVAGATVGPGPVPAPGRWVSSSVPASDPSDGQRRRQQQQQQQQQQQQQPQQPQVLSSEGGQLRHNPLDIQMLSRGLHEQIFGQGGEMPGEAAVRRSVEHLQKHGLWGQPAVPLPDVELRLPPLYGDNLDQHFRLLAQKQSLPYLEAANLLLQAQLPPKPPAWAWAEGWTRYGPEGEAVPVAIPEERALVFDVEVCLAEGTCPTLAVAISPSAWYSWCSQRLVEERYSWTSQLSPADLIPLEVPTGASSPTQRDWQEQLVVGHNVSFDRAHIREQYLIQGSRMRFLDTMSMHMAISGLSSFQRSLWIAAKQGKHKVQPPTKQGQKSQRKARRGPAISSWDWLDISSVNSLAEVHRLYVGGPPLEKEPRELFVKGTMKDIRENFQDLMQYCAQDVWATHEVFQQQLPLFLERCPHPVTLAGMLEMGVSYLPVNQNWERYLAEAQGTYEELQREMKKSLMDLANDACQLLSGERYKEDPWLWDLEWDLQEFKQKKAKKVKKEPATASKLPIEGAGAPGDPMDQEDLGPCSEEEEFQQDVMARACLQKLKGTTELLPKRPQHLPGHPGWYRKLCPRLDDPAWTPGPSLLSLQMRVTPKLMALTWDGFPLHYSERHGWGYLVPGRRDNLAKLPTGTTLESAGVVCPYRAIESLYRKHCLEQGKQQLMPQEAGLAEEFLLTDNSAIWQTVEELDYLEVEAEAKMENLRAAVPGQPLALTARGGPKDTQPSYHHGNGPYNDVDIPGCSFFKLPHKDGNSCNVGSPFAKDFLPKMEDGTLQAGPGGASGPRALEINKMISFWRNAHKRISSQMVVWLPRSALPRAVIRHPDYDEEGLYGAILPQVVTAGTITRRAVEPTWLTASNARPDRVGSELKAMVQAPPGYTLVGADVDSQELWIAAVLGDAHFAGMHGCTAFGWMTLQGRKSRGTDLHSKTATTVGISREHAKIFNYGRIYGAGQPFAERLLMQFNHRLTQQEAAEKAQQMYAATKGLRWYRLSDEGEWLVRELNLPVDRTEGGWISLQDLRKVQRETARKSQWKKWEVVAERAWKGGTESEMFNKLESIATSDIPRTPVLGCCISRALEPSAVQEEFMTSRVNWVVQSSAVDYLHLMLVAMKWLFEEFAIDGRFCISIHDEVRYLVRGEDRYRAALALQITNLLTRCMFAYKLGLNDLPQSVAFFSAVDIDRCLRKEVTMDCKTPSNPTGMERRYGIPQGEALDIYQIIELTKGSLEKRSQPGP
T1 sequence (Q9UHN1 1-485 partner): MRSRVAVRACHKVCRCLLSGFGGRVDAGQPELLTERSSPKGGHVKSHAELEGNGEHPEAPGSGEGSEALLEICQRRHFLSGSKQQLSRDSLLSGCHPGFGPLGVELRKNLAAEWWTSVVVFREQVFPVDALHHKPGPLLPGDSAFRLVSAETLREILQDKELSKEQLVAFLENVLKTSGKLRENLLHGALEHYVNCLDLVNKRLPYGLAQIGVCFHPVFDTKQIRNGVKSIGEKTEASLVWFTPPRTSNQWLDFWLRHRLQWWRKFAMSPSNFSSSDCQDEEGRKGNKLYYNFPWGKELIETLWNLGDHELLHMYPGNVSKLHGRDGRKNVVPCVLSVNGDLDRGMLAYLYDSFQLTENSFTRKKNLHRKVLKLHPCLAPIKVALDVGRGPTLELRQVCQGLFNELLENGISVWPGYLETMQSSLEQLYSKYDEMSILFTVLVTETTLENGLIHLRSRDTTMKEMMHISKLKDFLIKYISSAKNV
The experiment in a line: DNA polymerization assay, W748S + E1143G mutant. The following applies: stimulation of polymerase activity, primed M13mp18 ssDNA, 37° C. 2 hours. In kind it is biochemical. As for the experimental part: DNA Polymerization Assay to Monitor Effects on Human Wildtype POLγ and Four Disease-Causing Mutant Variants of Human POLγ.
The ability of small molecules to stimulate the polymerase activity of POLγ was analyzed in a quantitative fluorescence SYBR Green I assay with fluorescence intensity (FI) readout.
In the presence of dNTPs, wild type human POLγ and mutant derivatives thereof were incubated with single-stranded, circular M13mp18 ssDNA hybridized to a short DNA oligonucleotide that functions as a primer for initiation of DNA synthesis. POLγ and mutant derivatives thereof will extend the primer and use the M13mp18 molecule as a template to synthesize long stretches of double-stranded DNA. SYBR Green I, which is a double-stranded DNA-binding dye, was used to quantify formation of double-stranded DNA in the reaction. When bound to double-stranded DNA, SYBR Green I fluorescence increases by up to 100-fold.
The assay was performed in the 384-well plate format. Upon addition of compounds, changes in double-stranded DNA synthesis activity can be monitored by following effects on fluorescent intensity.
The reactions also contained the accessory POLγB subunit, and the human mitochondrial single-stranded DNA binding protein (mtSSB).
The DNA template mixture used in the assay contained 0.5 nM primed M13 mp18 ssDNA, 400 nM mtSSB, 0.1 mM Tris-HCl (pH 8.0), 0.1 mM dNTP, 10 mM MgCl2, 0.1 mg/mL BSA, 1 mM TCEP solution, and 0.02% Triton X-100. The DNA template mixture for the wild type protein contained either 100 μM dNTP, 1 μM dNTP, or 0.1 μM dNTP, designated in Table 2 as 100 μM, 1 μM, and 0.1 μM, respectfully.
Microplates with compounds (0.1 μL in each well) to be tested in the assay were prepared from 10 mM compound stocks in 100% DMSO, and equal amounts of DMSO without any compound were added to positive and negative control wells.
The protein mixture was dispensed (5 μL into each well) into compound plates and incubated at 37° C. for 15 minutes. After incubation, 5 μL of the DNA template mixture was dispensed into each well. The plates were then incubated at 37° C. for 2 hours.
During incubation, a combined stop buffer and detection reagent solution was prepared. The buffer contained 25 mM EDTA (pH 8.0), 0.02% Triton X-100, and SYBR Green I [Invitrogen] diluted 10,000× (for fluorescent readout). EDTA will stop the enzymatic reaction by chelating magnesium ions.
One may read the AC50 as the concentration at which the activity in the assay is half-maximal. Turning to `Cc1cc(S(=O)(=O)Nc2cccc(C(=O)N3CCC[C@H]3C)c2)c(C)cc1Cl` [Example 10, (R)-4-chloro-2,5-dimethyl-N-(3-(2-methylpyrrolidine-1-carbonyl)phenyl)benzenesulfonamide], the AC50 amounted to 2 µM.

In the case of `Cc1cc(S(=O)(=O)Nc2cccc(C(=O)NCc3ccccc3)c2)c(C)cc1Cl` [Example 11, N-benzyl-3-((4-chloro-2,5-dimethylphenyl)sulfonamido)benzamide], the AC50 came out at 19 µM.

For `Cc1cc(S(=O)(=O)Nc2cc(F)cc(C(=O)N3CCC[C@H]3C)c2)c(C)cc1Cl` [Example 13, (R)-4-chloro-N-(3-fluoro-5-(2-methylpyrrolidine-1-carbonyl)phenyl)-2,5-dimethylbenzenesulfonamide], the AC50 came to 4 µM.

As to `Cc1cc(S(=O)(=O)Nc2cccc(-c3ncc(C#N)s3)c2)c(C)cc1Cl` [Example 96, 4-chloro-N-(3-(5-cyanothiazol-2-yl)phenyl)-2,5-dimethylbenzenesulfonamide], the AC50 worked out at 2 µM.

On to `Cc1cnc(-c2ccc(C)c(NS(=O)(=O)c3cc(C)c(Cl)cc3C)c2)s1` [Example 98, 4-chloro-2,5-dimethyl-N-(2-methyl-5-(5-methylthiazol-2-yl)phenyl)benzenesulfonamide], for which the AC50 is more than 100 µM.

For the compound `Cc1cnc(-c2cc(NS(=O)(=O)c3cc(C)c(Cl)cc3C)ccc2C)s1` [Example 103, 4-chloro-2,5-dimethyl-N-(4-methyl-3-(5-methylthiazol-2-yl)phenyl)benzenesulfonamide], the AC50 is more than 100 µM.

These data come from US20260138961A1, “MODULATORS OF MITOCHONDRIAL DNA REPLICATION” (Pretzel Therapeutics, Inc., priority 2022, published 2026).
